Laboratory results published in publication PMC4503722, “Novel Phenotypic Outcomes Identified for a Public Collection of Approved Drugs from a Publicly Accessible Panel of Assays” (PLoS ONE, 2015).

Legend:
[1] = target: T1, hJAK2 (Homo sapiens, UniProt O60674); assay: Cerep LANCE kinase assay hJAK2 (S1 assay 33); format: biochemical; details: for hJAK2 LANCE IC50/EC50: assay number 33
T1 construct: purchased Cerep (LANCE kinase assay platform, contract assay)

[2] = system: alkaline phosphatase (ALP) activity in C2C12 cells; format: cell-based; details: concentration response; for WntCondMedia_Alk Phos C2C12 IC50/EC50: assay number 6
[3] = target: T2, hKDR (Homo sapiens, UniProt P35968); assay: Cerep LANCE kinase assay hKDR (S1 assay 32); format: biochemical; details: for hKDR LANCE IC50/EC50: assay number 32
T2 construct: purchased Cerep (LANCE kinase assay platform, contract assay)

[4] = target: T3, hGSK3b (Homo sapiens, UniProt P49841); assay: Cerep LANCE kinase assay hGSK3b (S1 assay 34); format: biochemical; details: for hGSK3b LANCE IC50/EC50: assay number 34
T3 construct: purchased Cerep (LANCE kinase assay platform, contract assay)

[5] = system: nuclear β-catenin in C2C12 cells; assay: cells; format: cell-based; details: concentration response; for WntCondMedia_bCatenin C2C12 IC50/EC50: assay number 5
[6] = system: ECFC/ADSC co-culture cell nuclei number
[7] = target: T4, hFLT3 (Homo sapiens, UniProt P36888); assay: Cerep LANCE kinase assay hFLT3 (S1 assay 35); format: biochemical; details: for hFLT3 LANCE IC50/EC50: assay number 35
T4 construct: purchased Cerep (LANCE kinase assay platform, contract assay)

[8] = system: HeLa cells; assay: cells; format: cell-based; details: for Hela CellCycMod PI 2N IC50/EC50: assay number 14; for Hela CellCycMod PI S Phase IC50/EC50: assay number 15; for Hela CellCycMod PI 4N IC50/EC50: assay number 16; for Hela CellCycMod PI MI IC50/EC50: assay number 17; for Hela CellCycMod PI Cell Number IC50/EC50: assay number 18
[9] = target: T5, hp70S6K1 (RPS6KB1) (Homo sapiens, UniProt P23443); assay: Cerep LANCE kinase assay hp70S6K1 (S1 assay 31); format: biochemical; details: for hp70S6K1 LANCE IC50/EC50: assay number 31
T5 construct: purchased Cerep (LANCE kinase assay platform, contract assay)

[10] = system: endothelial tube formation in co-cultures of ECFCs and ADSCs treated with VEGF; assay: cells; format: cell-based, human

T2 sequence (P35968 20-1356): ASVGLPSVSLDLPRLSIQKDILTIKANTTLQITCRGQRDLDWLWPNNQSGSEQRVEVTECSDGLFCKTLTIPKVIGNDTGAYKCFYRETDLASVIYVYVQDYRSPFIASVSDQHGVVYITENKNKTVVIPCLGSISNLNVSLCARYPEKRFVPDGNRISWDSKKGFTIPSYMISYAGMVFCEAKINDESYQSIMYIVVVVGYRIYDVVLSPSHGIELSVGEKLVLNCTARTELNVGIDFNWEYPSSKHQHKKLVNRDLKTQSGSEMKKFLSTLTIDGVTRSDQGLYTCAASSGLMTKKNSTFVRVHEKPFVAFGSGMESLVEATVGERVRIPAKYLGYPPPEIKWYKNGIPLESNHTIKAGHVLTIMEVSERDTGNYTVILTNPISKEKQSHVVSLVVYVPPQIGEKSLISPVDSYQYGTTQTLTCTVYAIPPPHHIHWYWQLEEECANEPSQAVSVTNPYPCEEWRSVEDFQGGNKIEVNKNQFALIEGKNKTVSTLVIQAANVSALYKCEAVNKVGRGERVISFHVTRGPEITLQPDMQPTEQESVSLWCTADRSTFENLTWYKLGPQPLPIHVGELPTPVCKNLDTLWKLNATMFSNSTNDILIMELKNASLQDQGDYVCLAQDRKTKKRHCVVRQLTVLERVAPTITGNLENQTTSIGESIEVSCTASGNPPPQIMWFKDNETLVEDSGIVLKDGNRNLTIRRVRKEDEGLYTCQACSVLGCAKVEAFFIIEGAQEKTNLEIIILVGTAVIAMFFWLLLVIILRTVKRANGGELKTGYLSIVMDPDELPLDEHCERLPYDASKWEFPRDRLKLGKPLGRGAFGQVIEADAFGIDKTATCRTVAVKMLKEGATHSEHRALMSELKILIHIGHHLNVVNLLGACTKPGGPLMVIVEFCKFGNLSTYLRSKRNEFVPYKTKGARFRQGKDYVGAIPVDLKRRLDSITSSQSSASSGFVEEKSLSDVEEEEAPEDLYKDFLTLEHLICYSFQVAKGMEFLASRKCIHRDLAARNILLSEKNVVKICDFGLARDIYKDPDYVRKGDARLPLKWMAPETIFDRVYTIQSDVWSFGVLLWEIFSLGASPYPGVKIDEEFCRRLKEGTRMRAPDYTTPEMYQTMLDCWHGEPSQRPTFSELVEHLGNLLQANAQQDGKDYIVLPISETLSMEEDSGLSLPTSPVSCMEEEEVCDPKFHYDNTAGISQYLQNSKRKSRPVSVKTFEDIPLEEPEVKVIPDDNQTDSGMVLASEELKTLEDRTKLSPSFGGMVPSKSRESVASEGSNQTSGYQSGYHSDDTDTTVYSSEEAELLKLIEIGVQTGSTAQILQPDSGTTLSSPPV
T3 sequence (P49841 whole entry): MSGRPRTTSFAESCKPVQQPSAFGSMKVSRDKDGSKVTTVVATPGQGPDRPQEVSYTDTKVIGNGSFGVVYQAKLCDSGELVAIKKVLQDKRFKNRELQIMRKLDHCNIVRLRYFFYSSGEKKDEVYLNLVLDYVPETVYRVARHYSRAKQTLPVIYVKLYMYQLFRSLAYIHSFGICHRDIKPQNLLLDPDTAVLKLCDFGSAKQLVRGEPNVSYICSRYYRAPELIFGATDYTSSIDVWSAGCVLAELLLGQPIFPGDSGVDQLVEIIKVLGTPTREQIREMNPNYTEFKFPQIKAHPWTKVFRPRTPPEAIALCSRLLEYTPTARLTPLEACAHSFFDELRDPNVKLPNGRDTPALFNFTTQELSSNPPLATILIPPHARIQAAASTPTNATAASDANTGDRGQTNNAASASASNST
T1 sequence (O60674 whole entry): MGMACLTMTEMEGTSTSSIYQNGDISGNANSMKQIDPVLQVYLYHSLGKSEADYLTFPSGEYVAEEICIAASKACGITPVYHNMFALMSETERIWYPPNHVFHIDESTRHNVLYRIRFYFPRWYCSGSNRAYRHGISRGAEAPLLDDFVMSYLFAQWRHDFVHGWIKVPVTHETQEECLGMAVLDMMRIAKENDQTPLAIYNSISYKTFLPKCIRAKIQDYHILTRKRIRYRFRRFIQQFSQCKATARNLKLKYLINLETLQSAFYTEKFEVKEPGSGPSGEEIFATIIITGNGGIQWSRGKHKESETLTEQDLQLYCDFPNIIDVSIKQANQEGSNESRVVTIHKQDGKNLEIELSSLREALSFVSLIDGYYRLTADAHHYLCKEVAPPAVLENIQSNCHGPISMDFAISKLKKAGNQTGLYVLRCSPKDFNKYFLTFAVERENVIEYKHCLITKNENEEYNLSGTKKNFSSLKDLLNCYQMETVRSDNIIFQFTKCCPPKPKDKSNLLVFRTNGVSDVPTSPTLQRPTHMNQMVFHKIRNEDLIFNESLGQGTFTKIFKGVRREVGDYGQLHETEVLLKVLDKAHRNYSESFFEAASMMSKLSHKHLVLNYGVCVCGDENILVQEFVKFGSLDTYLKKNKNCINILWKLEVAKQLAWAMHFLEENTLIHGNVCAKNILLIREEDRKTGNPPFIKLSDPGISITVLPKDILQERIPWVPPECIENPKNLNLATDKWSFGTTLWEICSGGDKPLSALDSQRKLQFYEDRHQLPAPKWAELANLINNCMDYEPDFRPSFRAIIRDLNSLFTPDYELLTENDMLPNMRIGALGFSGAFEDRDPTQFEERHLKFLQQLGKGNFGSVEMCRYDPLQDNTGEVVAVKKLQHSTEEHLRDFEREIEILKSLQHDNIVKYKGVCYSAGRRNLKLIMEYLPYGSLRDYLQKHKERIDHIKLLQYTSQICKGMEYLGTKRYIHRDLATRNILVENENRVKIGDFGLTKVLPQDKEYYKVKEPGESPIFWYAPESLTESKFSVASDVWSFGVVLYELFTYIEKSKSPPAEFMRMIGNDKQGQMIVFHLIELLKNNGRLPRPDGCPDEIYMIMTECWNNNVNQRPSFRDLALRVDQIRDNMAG
T4 sequence (P36888 27-993): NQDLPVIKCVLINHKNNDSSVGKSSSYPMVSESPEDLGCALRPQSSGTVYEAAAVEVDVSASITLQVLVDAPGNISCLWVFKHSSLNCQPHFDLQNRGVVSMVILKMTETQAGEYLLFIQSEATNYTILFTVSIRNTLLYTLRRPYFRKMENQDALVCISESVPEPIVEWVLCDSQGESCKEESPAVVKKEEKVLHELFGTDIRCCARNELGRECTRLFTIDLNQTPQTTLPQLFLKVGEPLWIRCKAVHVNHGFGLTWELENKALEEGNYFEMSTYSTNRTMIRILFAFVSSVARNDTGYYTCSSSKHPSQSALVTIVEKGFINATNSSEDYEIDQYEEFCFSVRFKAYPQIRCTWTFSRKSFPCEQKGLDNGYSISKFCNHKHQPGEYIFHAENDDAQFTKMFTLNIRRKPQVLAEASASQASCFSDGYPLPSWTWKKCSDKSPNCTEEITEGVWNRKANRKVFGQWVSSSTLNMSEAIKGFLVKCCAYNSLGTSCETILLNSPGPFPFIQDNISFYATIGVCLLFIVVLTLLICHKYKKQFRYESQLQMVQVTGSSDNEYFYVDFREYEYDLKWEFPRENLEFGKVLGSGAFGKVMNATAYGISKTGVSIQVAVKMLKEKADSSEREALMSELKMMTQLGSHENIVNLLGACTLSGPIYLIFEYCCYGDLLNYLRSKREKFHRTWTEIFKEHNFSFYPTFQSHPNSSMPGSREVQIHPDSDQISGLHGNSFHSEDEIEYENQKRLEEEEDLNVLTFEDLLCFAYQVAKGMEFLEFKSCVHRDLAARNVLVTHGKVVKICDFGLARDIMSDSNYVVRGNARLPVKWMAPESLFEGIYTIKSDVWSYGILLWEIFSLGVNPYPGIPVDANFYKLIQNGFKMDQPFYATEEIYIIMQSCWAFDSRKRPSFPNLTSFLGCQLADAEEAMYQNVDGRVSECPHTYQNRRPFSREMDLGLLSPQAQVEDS
T5 sequence (P23443 whole entry): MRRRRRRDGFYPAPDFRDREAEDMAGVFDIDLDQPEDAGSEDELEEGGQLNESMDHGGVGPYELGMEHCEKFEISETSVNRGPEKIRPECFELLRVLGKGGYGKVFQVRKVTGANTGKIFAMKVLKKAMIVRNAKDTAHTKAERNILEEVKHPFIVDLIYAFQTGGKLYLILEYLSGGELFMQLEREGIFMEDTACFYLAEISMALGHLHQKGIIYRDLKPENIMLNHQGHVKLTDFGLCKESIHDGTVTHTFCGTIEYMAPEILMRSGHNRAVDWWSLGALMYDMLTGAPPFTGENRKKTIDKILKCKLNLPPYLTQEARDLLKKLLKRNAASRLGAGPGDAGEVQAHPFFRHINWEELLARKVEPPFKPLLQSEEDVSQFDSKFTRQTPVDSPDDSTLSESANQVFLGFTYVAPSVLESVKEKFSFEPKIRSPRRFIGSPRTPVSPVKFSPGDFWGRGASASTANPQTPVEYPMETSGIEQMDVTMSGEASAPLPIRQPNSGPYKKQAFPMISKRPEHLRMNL

Compound	IC50/EC50, hJAK2 LANCE (assay number 33) [1]	IC50/EC50, WntCondMedia_Alk Phos C2C12 (assay number 6) [2]	IC50/EC50, hKDR LANCE (assay number 32) [3]	IC50/EC50, hGSK3b LANCE (assay number 34) [4]	IC50/EC50, WntCondMedia_bCatenin C2C12 (assay number 5) [5]	IC50/EC50, VEGF_ADSC\ECFC Angio Hoechst NucArea (assay number 3) [6]	hJAK2 LANCE IC50/EC50 [1]	WntCondMedia_Alk Phos C2C12 IC50/EC50 [2]	hKDR LANCE IC50/EC50 [3]	hGSK3b LANCE IC50/EC50 [4]	WntCondMedia_bCatenin C2C12 IC50/EC50 [5]	VEGF_ADSC\ECFC Angio Hoechst NucArea IC50/EC50 [6]	hFLT3 LANCE IC50/EC50 [7]	Hela CellCycMod PI 2N IC50/EC50 [8]	Hela CellCycMod PI S Phase IC50/EC50 [8]	Hela CellCycMod PI 4N IC50/EC50 [8]	Hela CellCycMod PI MI IC50/EC50 [8]	Hela CellCycMod PI Cell Number IC50/EC50 [8]	hp70S6K1 LANCE IC50/EC50 [9]	VEGF_ADSC\ECFC Angio CD31 TubeArea IC50/EC50 [10]	other results
COC(=O)Nc1nc2ccc(C(=O)c3cccs3)cc2[nH]1 [NCGC00015647-18]	> 20 µM	0.0434 µM	6.61 µM	19.89 µM	0.2351 µM	> 10 µM	–	–	–	–	–	–	–	–	–	–	–	–	–	–	IC50/EC50, hFLT3 LANCE (assay number 35) [7]: > 20 µM; IC50/EC50, Hela CellCycMod PI 2N (assay number 14) [8]: 0.0174 µM; IC50/EC50, Hela CellCycMod PI 4N (assay number 16) [8]: 0.01755 µM; IC50/EC50, Hela CellCycMod PI MI (assay number 17) [8]: 0.01339 µM; IC50/EC50, Hela CellCycMod PI S Phase (assay number 15) [8]: > 10 µM; IC50/EC50, hp70S6K1 LANCE (assay number 31) [9]: > 20 µM; IC50/EC50, VEGF_ADSC\ECFC Angio CD31 TubeArea (assay number 2) [10]: 0.1018 µM
CCN(CC)CCNc1ccc(CO)c2sc3ccccc3c(=O)c12 [NCGC00016622-08]	> 20 µM	2.6738 µM	> 20 µM	> 20 µM	> 20 µM	> 10 µM	–	–	–	–	–	–	–	–	–	–	–	–	–	–	IC50/EC50, hFLT3 LANCE (assay number 35) [7]: > 20 µM; IC50/EC50, Hela CellCycMod PI 2N (assay number 14) [8]: 5.6786 µM; IC50/EC50, Hela CellCycMod PI 4N (assay number 16) [8]: > 10 µM; IC50/EC50, Hela CellCycMod PI Cell Number (assay number 18) [8]: 5.9199 µM; IC50/EC50, Hela CellCycMod PI MI (assay number 17) [8]: > 10 µM; IC50/EC50, Hela CellCycMod PI S Phase (assay number 15) [8]: > 10 µM; IC50/EC50, hp70S6K1 LANCE (assay number 31) [9]: 17.07 µM; IC50/EC50, VEGF_ADSC\ECFC Angio CD31 TubeArea (assay number 2) [10]: 8.3546 µM
COC(=O)Nc1nc2ccc(C(=O)c3ccccc3)cc2[nH]1 [NCGC00016806-13]	> 20 µM	0.2454 µM	1.43 µM	> 20 µM	1.7387 µM	> 10 µM	–	–	–	–	–	–	–	–	–	–	–	–	–	–	IC50/EC50, hFLT3 LANCE (assay number 35) [7]: > 20 µM; IC50/EC50, Hela CellCycMod PI 2N (assay number 14) [8]: 0.0761 µM; IC50/EC50, Hela CellCycMod PI 4N (assay number 16) [8]: 0.08 µM; IC50/EC50, Hela CellCycMod PI Cell Number (assay number 18) [8]: 0.0542 µM; IC50/EC50, Hela CellCycMod PI MI (assay number 17) [8]: 0.0648 µM; IC50/EC50, hp70S6K1 LANCE (assay number 31) [9]: > 20 µM; IC50/EC50, VEGF_ADSC\ECFC Angio CD31 TubeArea (assay number 2) [10]: 0.3699 µM
C=C(C)[C@H]1Cc2c(ccc3c2O[C@@H]2COc4cc(OC)c(OC)cc4[C@@H]2C3=O)O1 [NCGC00017358-15]	–	–	–	–	–	–	> 20 µM	0.2539 µM	> 20 µM	> 20 µM	2.9875 µM	> 10 µM	> 20 µM	0.3111 µM	> 10 µM	0.3108 µM	0.2229 µM	0.1532 µM	> 20 µM	0.0257 µM	–
CCCOc1ccc2nc(NC(=O)OC)[nH]c2c1 [NCGC00018238-09]	–	–	–	–	–	–	> 20 µM	0.0881 µM	> 20 µM	> 20 µM	0.3653 µM	> 10 µM	> 20 µM	0.0622 µM	–	0.0567 µM	0.0775 µM	0.0467 µM	> 20 µM	0.3276 µM	–
CC(=O)[C@]1(O)Cc2c(O)c3c(c(O)c2[C@@H](O[C@H]2C[C@H](N)[C@H](O)[C@H](C)O2)C1)C(=O)c1ccccc1C3=O [NCGC00093976-08]	–	–	–	–	–	–	> 20 µM	0.5039 µM	> 20 µM	> 20 µM	0.1001 µM	0.5381 µM	> 20 µM	0.0111 µM	> 10 µM	> 10 µM	0.6593 µM	0.0142 µM	> 20 µM	0.0208 µM	–
CCCCC1C(=O)N(c2ccccc2)N(c2ccc(O)cc2)C1=O (stereo not shown) [NCGC00094748-07]	–	–	–	–	–	–	> 20 µM	4.9189 µM	> 20 µM	> 20 µM	> 20 µM	8.826 µM	> 20 µM	> 10 µM	> 10 µM	> 10 µM	> 10 µM	1.6628 µM	> 20 µM	3.2937 µM	–
CCCN(CCC)C(=O)C(CCC(=O)OCCCN1CCN(CCOC(=O)Cc2c(C)n(C(=O)c3ccc(Cl)cc3)c3ccc(OC)cc23)CC1)NC(=O)c1ccccc1 (stereo not shown) [NCGC00183024-01]	–	–	–	–	–	–	> 20 µM	13.2162 µM	> 20 µM	> 20 µM	> 20 µM	–	> 20 µM	> 10 µM	–	> 10 µM	> 10 µM	5.4844 µM	> 20 µM	–	–
COC(=O)[C@H]1[C@H]2C[C@@H]3c4[nH]c5cc(OC)ccc5c4CCN3C[C@H]2C[C@@H](OC(=O)/C=C/c2ccc(O)c(OC)c2)[C@@H]1OC [NCGC00253604-01]	–	–	–	–	–	–	> 20 µM	10.4461 µM	> 20 µM	> 20 µM	> 20 µM	–	> 20 µM	> 10 µM	> 10 µM	> 10 µM	> 10 µM	> 10 µM	> 20 µM	–	–
CCC1=C[C@@H]2CN(C1)Cc1c([nH]c3ccccc13)[C@@](C(=O)OC)(c1cc3c(cc1OC)N(C)[C@H]1[C@@](O)(C(=O)OC)[C@H](OC(C)=O)[C@]4(CC)C=CCN5CC[C@]31[C@@H]54)C2.O=C(O)C(O)C(O)C(=O)O.O=C(O)C(O)C(O)C(=O)O [NCGC00263568-01]	–	–	–	–	–	–	> 20 µM	0.0101 µM	> 20 µM	> 20 µM	0.0089 µM	> 10 µM	> 20 µM	–	–	–	–	–	> 20 µM	0.0055 µM	–
